Results reported in the RepoRT retention time repository (doi:10.1007/s11306-011-0298-z).

Experiment: RP, Waters ACQUITY UPLC HSS T3, 100 × 2.1 mm, 1.8 µm, 30 °C, 0.3 mL/min, estimated dead time 0.73 min; A: water + 0.1% formic acid, pH 3; B: methanol + 0.1% formic acid, pH 3; gradient (min/%B) 0/0 6/0 56/100 60/100
Conditions: stereoisomer not certain

LC retention time | Compound
1.67 min | C[n+]1cccc(C(=O)[O-])c1 [trigonelline]
26.2 min | OCCc1c[nH]c2ccccc12 [trypthophol]
17.5 min | OCCc1ccc(O)cc1 [tyrosol]
23.9 min | O=c1ccc2ccc(O)cc2o1 [umbelliferone]
2.98 min | O=c1cc[nH]c(=O)[nH]1 [uracil]
1.3 min | NC(N)=O [urea]
7.1 min | CCOC(N)=O [urethane]
1.62 min | O=c1[nH]c(=O)c2[nH]c(=O)[nH]c2[nH]1 [uric acid]
7 min | O=c1ccn(C2OC(CO)C(O)C2O)c(=O)[nH]1 (centres undefined) [uridine]
53.6 min | CC1CCC2(C(=O)O)CCC3(C)C(=CCC4C5(C)CCC(O)C(C)(C)C5CCC43C)C2C1C (centres undefined) [ursolic acid]
20.3 min | COc1cc(C(=O)O)ccc1O [vanillic acid]
21.5 min | COc1cc(C=O)ccc1O [vanillin]
29 min | Oc1ccc(C2Oc3cc(O)c4c(c3C2c2cc(O)cc(O)c2)C2c3c(O)cc5c(c3C(C4c3ccc(O)cc3)C2c2ccc(O)cc2)C(c2cc(O)cc(O)c2)C(c2ccc(O)cc2)O5)cc1 (stereo not drawn) [vaticanol C like isomer]
57.7 min | CC(=CCC1=C(C)C(=O)c2ccccc2C1=O)CCCC(C)CCCC(C)CCCC(C)C (centres undefined) [vitamin K1]
28.3 min | COc1cc(-c2oc3cc(=O)cc4oc(C(=O)O)cc(c2OC2OC(CO)C(O)C(O)C2O)c43)cc(OC)c1O (centres undefined) [vitisin A]
27 min | COc1cc(-c2oc3cc(=O)cc4occc(c2OC2OC(CO)C(O)C(O)C2O)c43)cc(OC)c1O (centres undefined) [vitisin B]
6.01 min | O=c1[nH]c(=O)c2[nH]cnc2[nH]1 [xanthine]
1.4 min | OC1COC(O)C(O)C1O (centres undefined) [xylose]

Compound | LC retention time
NCCc1ccc(O)cc1 [tyramine] | 6.2 min
